Assay results published in US9162992B2, “Compounds and compositions for treatment of breathing control disorders or diseases” (GALLEON PHARMACEUTICALS, INC., priority 2010, dated 2015).
Where a name gives a salt, the structure may show the parent alone.

How the values were obtained:
[1] = system: spontaneously breathing rats; assay: Minute ventilation (MV) and cardiovascular parameters in naive rats; format: in vivo, rat; set-up: unit not given here; conditions: 1 mpk IV; 15/65/20; pH 5
Experimental: All surgical procedures were performed under anesthesia induced by 2% isoflurane in compressed medical grade air. With rats in supine position, the right femoral vein was catheterized using polyethylene tubing (PE-50). This catheter was used for fluid and drug administration. Simultaneously, the right femoral artery was also catheterized for monitoring blood pressure and heart rate. In order to measure the respiratory parameters in spontaneously breathing rats, trachea was intubated using 13 gauge tracheal tube (2.5 mm ID, Instech Solomon, Pa.).
After establishing a stable base-line at 1.5% isoflurane, compounds (typically at a dose of 1 mpk) were administered IV, and ventilatory parameters were generated from spontaneously breathing rats, along with cardiovascular output (mean arterial pressure (MAP) and heart rate). Maximum peak minute ventilatory (MV) responses (MPR), along with changes in minute ventilation versus baseline (AMV) were obtained as shown in the tables below.

[2] = system: spontaneously breathing rats; assay: Respiratory rate, tidal volume and minute volume in urethane-anesthetized rat; format: in vivo; conditions: IV; compared to vehicle
Experimental: Adult male Sprague Dawley rats (250-350 g body weight; Harlan, Indianapolis, Ind., USA) were anesthetized with isoflurane in oxygen. The femoral vein was cannulated to administer compounds. Body temperature was maintained between 36.0 and 37.2° C. throughout the experiment. The cervical portion of the trachea was cannulated and attached to a rat-sized pneumotachometer for measuring tracheal airflow. After surgical instrumentation was complete, isoflurane was slowly discontinued, while urethane (1.8 g/kg) was administered intravenously over 10-15 minutes to maintain anesthesia. Rats were permitted to breathe spontaneously and inspire 100% oxygen. At least 30-45 minutes after discontinuing isoflurane, baseline tracheal airflow was recorded for 20-30 minutes prior to compound administration. Vehicle and test compound were administered intravenously over 15-25 seconds and at a constant volume (1 mL/kg). At least 15-min elapsed between each dose of compound administered. Tracheal airflow was recorded continuously before, during and after compound administration. Tidal volume was derived from the integral of airflow, and respiratory rate was derived from the number of inspiratory cycles per minute. Minute volume was calculated as the product of tidal volume and respiratory rate (FIG. 32).

[3] = molecular target: T1, rat KCNK3/TASK-1 (Rattus norvegicus, UniProt O54912); assay: Thallium flux through rat TASK-1 (KCNK3-CHO cells); format: cell-based; conditions: Tl+ flux; 3 nM to 30 μM; read-out: rTASK-1 IC50
T1 construct: expressed in transfected cells; host or cells: CHO cells (tetracycline-inducible)
T1 sequence (O54912 whole entry): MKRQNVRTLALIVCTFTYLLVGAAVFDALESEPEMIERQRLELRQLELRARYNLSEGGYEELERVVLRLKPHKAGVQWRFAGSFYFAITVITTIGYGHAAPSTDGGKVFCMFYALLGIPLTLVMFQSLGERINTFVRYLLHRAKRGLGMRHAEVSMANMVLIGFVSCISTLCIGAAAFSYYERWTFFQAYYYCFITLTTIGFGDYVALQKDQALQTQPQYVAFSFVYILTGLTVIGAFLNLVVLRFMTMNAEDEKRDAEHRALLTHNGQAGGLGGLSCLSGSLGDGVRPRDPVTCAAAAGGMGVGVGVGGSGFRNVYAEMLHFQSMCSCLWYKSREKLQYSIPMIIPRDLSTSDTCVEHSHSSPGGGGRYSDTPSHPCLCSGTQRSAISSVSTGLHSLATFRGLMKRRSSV
Experimental: (§1) CHO cells expressing recombinant tetracycline-inducible rat KCNK3/TASK-1 (KCNK3-CHO cells) were plated in poly-D-lysine coated 384-well plates at a density of 6,000 cells/well (50 μl/well of 120,000 cells/mL) and allowed to incubate for 72 hrs in the presence of 5% CO2 and 1 μg/mL tetracycline at 30° C. HEK cells expressing recombinant tetracycline-inducible human KCNK9/TASK-3 (KCNK9-HEK cells) were plated at a density of 15,000 cells per well (50 μl/well, 300,000 cells/mL) and incubated overnight at 37° C. and 5% CO2 in the presence of 1 μg/mL tetracycline.
(§2) Drug plates were generated from 10 mM 100% DMSO mother plates. Compounds were transferred to 384-well drug plates and titrated with sequential 1:3 dilutions in 100% DMSO for a total of 9 dilutions. A dilution plate is made by taking 2.4 μl from the mother plate and adding to […] of assay buffer for a 12% DMSO dilution plate. From this dilution plate, a final daughter plate is generated by taking 1 μA of the dilution plate and adding to 40 μA of assay buffer for a final DMSO concentration of 0.3%. Each compound was evaluated in duplicate and the concentration range evaluated was 3 nM to 30 μM.
(§3) When thallium was added to extracellular solution with a stimulus to open channels, Tl^+ flowed down its concentration gradient into the cells and channel activity was detected with an indicator dye, FluxOR™, that increased in cytosolic fluorescence. The FluxOR™ indicator dye was loaded into cells as a membrane permeable acetoxymethyl ester. On the day of each assay, FluxOR™ assay buffer was made fresh from Hank's Balanced Saline Solution (HBSS) buffered with 20 mM HEPES and pH adjusted to 7.4 with NaOH. Dye loading solution was prepared per manufacturer's instructions, and 25 μl of dye solution applied to each well with a multidropper after plating medium was removed manually from cells. Dye was allowed to load for 90 minutes at room temperature in the dark.
(§4) After the 90 min dye loading incubation and subsequent manual dye removal, 24 μl of the drug daughter plate was transfer to cell plates by a cybi-well system and then incubated at room temperature for 20 minutes to allow for equilibration within wells. Stimulation buffer was prepared from 5× chloride-free buffer, thallium, and potassium sulfate containing 5 times the desired final assay concentration of 10 mM K^+ 2.8 mM Tl^+. Cell plates were then transferred to an FDSS 6000 kinetic imaging plate reader (Hamamatsu). Fluorescence at 525 nm (excitation 488 nm) was measured for 10 seconds at 1 Hz to establish baseline for the entire plate. After baseline was established, 6 μl/well of stimulation buffer was added and fluorescence signal recorded for another 140 seconds.
(§5) From the fluorescence signals in the absence and presence of Galleon compounds, Inhibitory concentration curves were plotted and IC50 values were estimated using a curve fitting algorithm.

[4] = molecular target: T2, human KCNK9/TASK-3 (Homo sapiens, UniProt Q9NPC2); assay: Thallium flux through human TASK-3 (KCNK9-HEK cells); format: cell-based; conditions: Tl+ flux; 3 nM to 30 μM; read-out: hTASK-3 IC50
T2 construct: expressed in transfected cells; host or cells: HEK cells (tetracycline-inducible)
T2 sequence (Q9NPC2 whole entry): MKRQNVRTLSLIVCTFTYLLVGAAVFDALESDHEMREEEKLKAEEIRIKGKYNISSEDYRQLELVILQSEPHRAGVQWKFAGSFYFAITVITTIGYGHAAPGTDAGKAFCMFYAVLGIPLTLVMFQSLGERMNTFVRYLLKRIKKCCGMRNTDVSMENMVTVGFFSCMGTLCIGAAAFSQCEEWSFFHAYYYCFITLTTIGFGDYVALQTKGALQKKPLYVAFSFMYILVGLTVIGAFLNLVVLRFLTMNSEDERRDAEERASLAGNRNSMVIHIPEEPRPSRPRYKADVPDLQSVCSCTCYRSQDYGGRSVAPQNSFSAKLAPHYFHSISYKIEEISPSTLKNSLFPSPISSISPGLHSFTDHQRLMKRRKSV
Experimental: as §1, §2, §3, §4, §5

[5] = Solubility of process impurity (observation); format: physicochemical
Excerpt: Under certain conditions where the compounds of the present invention and their synthetic intermediates are exposed to acidic or alkaline aqueous environments, the bond between the aromatic heterocycle and the ring substituents may be susceptible to hydrolytic cleavage. For example, in the intermediates to compounds of formula (II-a), a halo substituent in the 2 position (Schemes 3 and 4) may be hydrolytically replaced with a hydroxyl group to yield N-(4,6-Bis(n-propylamino)-1,3,5-triazin-2-ol (CLXXVIII). Similarly, the amine substituents of compounds of formula (II-a) may be displaced by a hydroxyl group. Without wishing to be bound by theory, a series of chemical changes may occur to enable this substitution, such as a prior oxidation of the appended amine side chain, with hydrolytic replacement by hydroxyl as the final transformation. As a specific non-limiting example, the N,O-dimethylhydroxylamino substituent of N-(4,6-Bis-n-propylamino-[1,3,5]triazin-2-yl)-N,O-dimethyl-hydroxylamine (XXXV) may be partially displaced by hydroxyl during processing in the presence of water, forming (CLXXVIII) as a process impurity. […] It was unexpectedly observed that even at elevated temperatures (CLXXVIII) is very insoluble relative to the active ingredient. Thus, trace quantities of this compound in the API can be problematic in liquid formulations. […]

[6] = system: morphine-induced respiratory depression; assay: Opioid-induced respiratory depression in the rat, plethysmography (minute ventilation); format: in vivo; conditions: opioid-treated rat; plethysmography; FIG. 9
Experimental: Rats with pre-cannulated jugular vein (for administering drugs) were acclimated to plethysmography chambers for a minimum of 60 minutes, or until animals were no longer restless. Each animal was dosed with morphine sulfate (10 mg/kg), dissolved in sterile water at a concentration of 10 mg/mL (supplied by Baxter Healthcare Corporation), via injection into the jugular vein catheter over a period of 5-10 seconds.
Compound (XXXVI) was dissolved in 20% hydroxypropyl β-cyclodextran (20% bcd on graph) at a concentration of 0.45 mg/mL at pH 5. After a period of 5 min, compound (XXXVI), labeled as cmpd (A), was administered via infusion into the jugular vein at a dose of 0.10 mg/kg/min for 20 min and then at a dose of […] for 20 min (e.g., 20 μL/min/0.3 kg rat to yield […]).
After 20 minutes of infusion at this dose, the infusion pumps were turned off, and all animals were given a 20 minute recovery period, followed by a post-study analysis of rat health and behavior. […] Results are illustrated in FIG. 1.

[7] = system: morphine-induced respiratory depression; assay: Effects of morphine and compound on arterial blood gases in the rat; format: in vivo; conditions: opioid-treated rat
Experimental: Rats with pre-cannulated jugular vein and femoral arterial catheters (for administering drugs and obtaining blood samples respectively) were obtained from Harlan laboratories and kept at the animal facility at Galleon Pharmaceuticals until the experimental procedures. Each animal was dosed with morphine sulfate (10 mg/kg), dissolved in saline at a concentration of 10 mg/mL, via injection into the jugular vein over a period of 20 seconds with a 20 second flush of 0.9% NaCl saline. Prior to morphine administration, two 250 μL samples of arterial blood were aspirated from the femoral artery into a pre-heparinized syringe. The samples were analyzed on Radiometer's ABL Flex 800, where pO2, pCO2, pH, SaO2 and other parameters were recorded. Aspirated volumes of arterial blood were replaced by room temperature sterile saline (˜300 μL) slowly flushed back into the femoral arterial catheter of the rodent to prevent hypovolemia. Morphine was then administered and 2 minutes later another blood sample was taken.
The infusion started at t=15 minutes and ended at t=35 minutes. Arterial blood gas analysis occurred at time points t=12, 18, 25, 35, 40, 45, and 50 minutes.

[8] = system: spontaneously breathing rats; assay: Dose-dependent effect on minute ventilation (MV) in naive rats; format: in vivo, rat; conditions: 1.5% isoflurane; for minute ventilation, dose dependence: cumulative IV doses
Experimental: All surgical procedures were performed under anesthesia induced by 2% isoflurane in compressed medical grade air. With rats in supine position, the right femoral vein was catheterized using polyethylene tubing (PE-50). This catheter was used for fluid and drug administration. Simultaneously, the right femoral artery was also catheterized for monitoring blood pressure. In order to measure the respiratory parameters in spontaneously breathing rats, trachea was intubated using 13 gauge tracheal tube (2.5 mm ID, Instech Solomon, Pa.).
After establishing a stable base-line at 1.5% isoflurane, cumulative dose-dependent (0.01, 0.03, 0.1, 0.3, 1, 3, 10 mg/kg) ventilatory responses to compounds (XXXVI) and (L), labeled as cmpd (A) and cmpd (B) respectively, were generated from spontaneously breathing rats. Maximum peak minute ventilatory (MV) values at each dose of corresponding drug were calculated and used for generating ED50 values.

## CCCNc1cc(N(C)OC)nc(NCCC)n1 (as salt: hydrogen sulfate) [CXXI, 2,6-Bis-(N-n-propylamino)-[1,3]pyrimidin-4-yl)-N,O-dimethyl-hydroxylamine hydrogen sulfate]
other
  melting point: 123 to 126 °C

## CCCNc1nc(NC)nc(NCCC)n1 [CLXXII, N-(2,4-Bis-n-propylamino)-N-(6-methylamino)-[1,3,5]triazine]
[1]
  MV MPR: 145
  MV ΔMV: 106
[2]
  respiratory rate, tidal volume and minute volume: increased both respiratory rate and tidal volume, and their product minute volume
[3]
  IC50: 0.01 µM
[4]
  IC50: > 30 µM

## CCCNc1nc(O)nc(NCCC)n1 [CLXXVIII]
[5]
  solubility in aqueous environments: sparingly soluble
  solubility in most organic solvents: very low solubility

## CCCNc1nc(N(C)OC)c2cc[nH]c2n1 [CXLII, N-(2-Propylamino-7H-pyrrolo[2,3d]pyrimidin-4-yl)-N,O-dimethyl-hydroxylamine hydrochloride]
[6]
  minute ventilation (MV), reversal of opioid-induced respiratory depression: reverse opioid-induced respiratory depression
[7]
  effects of opioid on blood gases and pH (pH, SaO2, pO2, pCO2): reverse the effects of opioid on blood gases and pH

## CCCNc1cc(N(C)OC)nc(NCCC)n1 [CXXI, 2,6-Bis-(N-n-propylamino)-[1,3]pyrimidin-4-yl)-N,O-dimethyl-hydroxylamine hydrogen sulfate]
[8]
  minute ventilation, dose dependence: increase minute ventilation in a dose-dependent manner
[3]
  IC50: 0.22 µM
[4]
  IC50: > 30 µM

## CCCNc1nc(NCCC)nc(N(C)NC)n1.O=S(=O)(O)O [L, N-(4,6-Bis-n-propylamino-[1,3,5]triazin-2-yl)-N,N′-dimethyl-hydrazine hydrogen sulfate]
[7]
  effects of opioid on blood gases and pH (pH, SaO2, pO2, pCO2): reverse the effects of opioid on blood gases and pH
[8]; Rattus norvegicus, cumulative IV doses 0.01-10 mg/kg, read-out: ED50, maximum peak minute ventilation
  ED50: 0.13 mg/kg
[8]
  minute ventilation, dose dependence: increased minute ventilation in a dose-dependent manner

## CCCNc1nc(NCCC)nc(NOC)n1.Cl [XLII, N-(4,6-Bis-n-propylamino-[1,3,5]triazin-2-yl)-O-methyl-hydroxylamine hydrochloride]
[2]
  respiratory rate, tidal volume and minute volume: increased both respiratory rate and tidal volume, and their product minute volume
[3]
  IC50: 0.05 µM
[4]
  IC50: > 30 µM
